The test system of test [1] is α1 adrenergic receptors (rat cerebral cortex). Nature of the test: Radioligand binding assay, adrenergic α1 receptors. The conditions noted are these: test compound 1×10^−6 M. In outline: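 Values derive from radioligand displacement, with non-specific binding defined by excess cold ligand and detection by scintillation. Hill-fit IC50s were converted to Ki via Cheng-Prusoff using Scatchard-derived Kd; percent inhibition of control specific binding also reported.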

Test [2] addresses T1, 5-HT6 receptor (Homo sapiens, UniProt P50406).
T1 construct: purchased PerkinElmer
Kind of test: Radioligand binding assay, serotoninergic 5-HT6 receptors. The conditions noted are these: for inhibition at 1 µM / 5-HT6 [%]: binding assay result in %, Table 5a; for Ki: read-out: Inhibition constants Ki, 5-HT6. In outline: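 Values are Ki from Cheng–Prusoff, taking IC50 from Hill nonlinear regression of competition curves and KD from a Scatchard plot. Specific binding was total minus binding with excess unlabelled ligand. Radioligand displacement was detected by scintillation counting, and data were also reported as percent of control specific binding.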

Test [3] has as its target T2, serotonin transporter (SERT) (Homo sapiens, UniProt P31645).
T2 construct: expressed in transfected cells; host or cells: CHO cells
Nature of the test: Radioligand binding assay, serotonin transporter (SERT). The conditions noted are these: for inhibition at 1 µM / SERT [%]: binding assay, test compound 1×10^−6 M. In outline:
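Radioligand competition binding with scintillation detection; specific binding is total minus binding under excess unlabelled ligand. Reported as % of control specific binding or % inhibition; IC50 from Hill-equation non-linear regression of competition curves, and Ki via Cheng-Prusoff using radioligand concentration and Scatchard-derived KD.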

Test [4] deals with T3, M3 muscarinic receptors (Homo sapiens, UniProt P20309).
T3 construct: expressed in transfected cells; host or cells: CHO cells
T3 sequence (P20309 whole entry): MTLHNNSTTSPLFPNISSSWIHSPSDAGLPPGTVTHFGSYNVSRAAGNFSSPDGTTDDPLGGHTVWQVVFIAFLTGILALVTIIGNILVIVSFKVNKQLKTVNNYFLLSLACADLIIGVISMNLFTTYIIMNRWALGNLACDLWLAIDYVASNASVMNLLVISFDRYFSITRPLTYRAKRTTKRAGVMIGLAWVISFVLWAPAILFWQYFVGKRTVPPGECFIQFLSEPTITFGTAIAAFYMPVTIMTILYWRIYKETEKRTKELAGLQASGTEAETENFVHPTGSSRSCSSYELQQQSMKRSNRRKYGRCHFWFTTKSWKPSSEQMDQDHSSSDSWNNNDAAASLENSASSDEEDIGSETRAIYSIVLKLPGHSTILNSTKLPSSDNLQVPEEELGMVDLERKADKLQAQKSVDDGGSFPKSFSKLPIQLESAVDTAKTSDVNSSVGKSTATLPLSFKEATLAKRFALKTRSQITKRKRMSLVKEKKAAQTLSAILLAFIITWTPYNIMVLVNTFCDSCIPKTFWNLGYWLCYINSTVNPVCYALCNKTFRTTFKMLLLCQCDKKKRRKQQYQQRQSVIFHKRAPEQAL
Kind of test: Radioligand binding assay, muscarinic M3 receptors. The conditions noted are these: test compound 1×10^−6 M. In outline:
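Radioligand competition binding, detected by scintillation counting; non-specific binding defined with excess unlabelled ligand. Results given as % inhibition of control specific binding; IC50 from Hill-equation fit of competition curves, Ki via Cheng-Prusoff with radioligand KD from Scatchard plot.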

Test [5] deals with dopaminergic receptors D2 (Homo sapiens, UniProt P14416). Kind of test: Radioligand binding assay, dopaminergic D2 receptors. Conditions: for inhibition at 1 µM / D2 [%]: binding assay, test compound 1×10^−6 M; for Ki: read-out: Inhibition constants Ki for D2 receptors, D2. In outline:
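Radioligand displacement was measured by scintillation counting, with non-specific binding defined in the presence of excess unlabelled ligand. Competition curves were fitted to the Hill equation to give IC50, and Ki was derived by the Cheng–Prusoff equation.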

The target in test [6] is T4, 5-HT2C receptor (Homo sapiens, UniProt P28335).
T4 construct: expressed in transfected cells; host or cells: HEK-293 cells
T4 sequence (P28335 33-458): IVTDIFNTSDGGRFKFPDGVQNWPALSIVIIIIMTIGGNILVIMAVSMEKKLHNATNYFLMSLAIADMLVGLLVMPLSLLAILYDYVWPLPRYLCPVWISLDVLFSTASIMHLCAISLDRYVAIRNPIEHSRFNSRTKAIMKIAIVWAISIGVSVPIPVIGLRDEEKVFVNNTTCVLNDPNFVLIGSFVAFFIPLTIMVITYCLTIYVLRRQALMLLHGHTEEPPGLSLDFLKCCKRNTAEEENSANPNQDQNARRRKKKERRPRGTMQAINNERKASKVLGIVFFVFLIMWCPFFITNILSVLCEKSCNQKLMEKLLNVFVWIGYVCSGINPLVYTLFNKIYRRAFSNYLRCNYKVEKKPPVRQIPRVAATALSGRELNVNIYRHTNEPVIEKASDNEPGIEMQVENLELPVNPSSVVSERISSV
Kind of test: Radioligand binding assay, serotoninergic 5-HT2C receptors. Conditions: test compound 1×10^−6 M.

The target of test [7] is T5, receptors D4.4 (Homo sapiens, UniProt P21917).
T5 sequence (P21917 1-419): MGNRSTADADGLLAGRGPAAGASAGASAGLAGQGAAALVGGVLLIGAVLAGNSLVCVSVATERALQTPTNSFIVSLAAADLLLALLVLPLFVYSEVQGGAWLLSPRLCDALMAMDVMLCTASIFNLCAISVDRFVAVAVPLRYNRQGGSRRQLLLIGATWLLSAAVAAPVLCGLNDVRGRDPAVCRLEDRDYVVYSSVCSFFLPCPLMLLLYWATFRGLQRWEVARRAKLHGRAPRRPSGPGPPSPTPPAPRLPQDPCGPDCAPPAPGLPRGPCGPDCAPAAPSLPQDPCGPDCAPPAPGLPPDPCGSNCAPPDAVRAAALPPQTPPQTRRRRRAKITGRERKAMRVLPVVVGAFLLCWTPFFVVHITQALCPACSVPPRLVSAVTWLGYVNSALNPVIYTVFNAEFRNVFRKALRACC
Kind of test: Radioligand binding assay, dopaminergic D4 (D4.4) receptors. Conditions: test compound 1×10^−6 M. In outline:
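Competition radioligand binding at human D2, D3 and D4.4 receptors, detected by scintillation counting; nonspecific binding defined with excess unlabelled ligand. Results as percent inhibition of control specific binding; IC50 by Hill-equation nonlinear regression; Ki via Cheng-Prusoff, with radioligand KD from Scatchard plot.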

dopaminergic receptors D2, sequence (P14416 whole entry): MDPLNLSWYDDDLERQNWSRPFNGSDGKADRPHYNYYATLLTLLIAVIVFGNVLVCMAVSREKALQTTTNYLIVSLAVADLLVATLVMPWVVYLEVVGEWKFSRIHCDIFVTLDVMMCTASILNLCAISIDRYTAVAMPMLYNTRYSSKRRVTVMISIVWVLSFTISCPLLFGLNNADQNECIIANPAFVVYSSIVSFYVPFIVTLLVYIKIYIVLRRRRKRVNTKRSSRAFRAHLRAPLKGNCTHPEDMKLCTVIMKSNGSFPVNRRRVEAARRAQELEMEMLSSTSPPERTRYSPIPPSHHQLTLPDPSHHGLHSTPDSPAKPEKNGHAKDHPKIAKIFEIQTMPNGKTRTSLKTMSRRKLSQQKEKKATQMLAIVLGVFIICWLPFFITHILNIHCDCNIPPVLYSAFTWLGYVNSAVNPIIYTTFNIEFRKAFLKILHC
T2 sequence (P31645 whole entry): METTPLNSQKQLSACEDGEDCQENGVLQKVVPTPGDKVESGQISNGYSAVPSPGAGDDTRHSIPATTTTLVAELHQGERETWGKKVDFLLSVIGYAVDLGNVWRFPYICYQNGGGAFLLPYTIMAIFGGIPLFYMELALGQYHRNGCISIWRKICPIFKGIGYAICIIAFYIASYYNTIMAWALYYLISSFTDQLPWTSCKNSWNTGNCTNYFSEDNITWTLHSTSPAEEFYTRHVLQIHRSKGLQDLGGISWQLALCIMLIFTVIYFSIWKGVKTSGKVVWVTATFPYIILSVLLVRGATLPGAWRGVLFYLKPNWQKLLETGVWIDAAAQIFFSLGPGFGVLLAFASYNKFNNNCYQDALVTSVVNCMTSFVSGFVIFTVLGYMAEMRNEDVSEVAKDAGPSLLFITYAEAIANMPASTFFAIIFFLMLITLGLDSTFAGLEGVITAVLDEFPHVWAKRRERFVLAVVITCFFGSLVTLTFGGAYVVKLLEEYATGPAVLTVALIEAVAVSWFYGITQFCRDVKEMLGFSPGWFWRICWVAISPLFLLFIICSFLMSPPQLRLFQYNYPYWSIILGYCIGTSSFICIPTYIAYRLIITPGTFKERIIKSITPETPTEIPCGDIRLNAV
T1 sequence (P50406 whole entry): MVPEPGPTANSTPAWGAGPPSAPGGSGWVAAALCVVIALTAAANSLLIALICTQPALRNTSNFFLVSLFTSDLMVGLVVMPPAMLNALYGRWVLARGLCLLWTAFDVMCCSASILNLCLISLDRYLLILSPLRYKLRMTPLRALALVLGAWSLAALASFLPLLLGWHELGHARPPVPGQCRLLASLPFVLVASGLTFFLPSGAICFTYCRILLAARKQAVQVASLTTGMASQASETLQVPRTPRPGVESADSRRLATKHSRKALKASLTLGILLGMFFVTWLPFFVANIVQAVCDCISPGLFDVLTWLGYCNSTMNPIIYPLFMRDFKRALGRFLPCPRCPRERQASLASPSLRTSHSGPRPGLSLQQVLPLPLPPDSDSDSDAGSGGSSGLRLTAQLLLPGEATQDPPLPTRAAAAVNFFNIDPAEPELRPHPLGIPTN

The term inhibition denotes the relative decrease from the control value, in per cent. A word on the Ki: it is the equilibrium dissociation constant of an inhibitor or competing ligand from its target. `Cc1c(S(=O)(=O)N[C@@H]2CCN(CCCc3noc4cc(F)ccc34)C2)sc2ccc(Cl)cc12` [Compound 204, 5-Chloro-N-[(3R)-1-[3-(6-fluoro-1,2-benzoxazol-3-yl)propyl]pyrrolidin-3-yl]-3-methyl-benzothiophene-2-sulphonamide]: in test [1], the “α1 [%]” value amounted to 76%. Moreover, the inhibition at 1 µM in test [2] amounted to 97%; in test [3], 70%; in test [4] it was 17%; in test [5] it was 98%; in test [6], 87%; in test [7], 71%. The Ki in test [2] was 6.9 nM; in test [5], 0.4 nM.

With `O=S(=O)(NC1CCN(CCCc2c[nH]c3ccc(F)cc23)C1)c1ccc2ccccc2c1` (stereo not shown) [Compound 80, N-[1-[3-(5-Fluoro-1H-indol-3-yl)propyl]pyrrolidin-3-yl]naphthalene-2-sulphonamide], in test [1], the “α1 [%]” value was 50%. Also, the inhibition at 1 µM in test [2] turned out to be 96%; in test [3], 104%; in test [4], 2%; in test [5], 96%; in test [6], 86%; in test [7], 91%. Further, the Ki came out at 15 nM in test [2] and 0.5 nM in test [3] (read-out: Inhibition constants Ki for SERT, SERT).

In the case of `O=S(=O)(NC1CN(CCOc2cccc3[nH]ccc23)C1)c1cccc(Cl)c1` [Compound 47, 3-Chloro-N-[1-[2-(1H-indol-4-yloxy)ethyl]azetidin-3-yl]benzene-sulphonamide], the “α1 [%]” value in test [1] was 71%. Also, the inhibition at 1 µM is 45% in test [2]; 6% in test [3]; -8% in test [4]; 83% in test [5]; 33% in test [6]; 80% in test [7].

For the molecule `O=S(=O)(NC1CN(CCOc2cccc3[nH]ccc23)C1)c1ccc2ccccc2c1` [Compound 50, N-[1-[2-(1H-Indol-4-yloxy)ethyl]azetidin-3-yl]naphthalene-2-sulphonamide], the “α1 [%]” value in test [1] was 88%. Moreover, the inhibition at 1 µM in test [2] was determined as 43%; in test [3] it was 20%; in test [4], 2%; in test [5], 96%; in test [6], 54%; in test [7] it was 94%.

On to `O=S(=O)(N[C@H]1CCN(CCCc2noc3cc(F)ccc23)C1)c1ccc2cc(Cl)ccc2c1` [Compound 201, 6-Chloro-N-[(3S)-1-[3-(6-fluoro-1,2-benzoxazol-3-yl)propyl]pyrrolidin-3-yl]naphthalene-2-sulphonamide], for which the “α1 [%]” value in test [1] came to 82%. Further, the inhibition at 1 µM in test [2] came out at 94%; in test [3], 59%; in test [4], 9%; in test [5], 99%; in test [6], 72%; in test [7], 50%. The Ki in test [2] is 79 nM; in test [5] it was 15 nM.

`O=S(=O)(NCC1CCN(CCOc2cccc3c2OCCO3)C1)c1ccc(Br)cc1` (stereo not shown) [Compound 305, 4-Bromo-N-[[1-[2-(2,3-dihydro-1,4-benzodioxin-5-yloxy)ethyl]pyrrolidin-3-yl]methyl]benzenesulphonamide]: in test [1], the “α1 [%]” value worked out at 84%. The inhibition at 1 µM in test [2] came out at 52%; in test [3], 94%; in test [4], 11%; in test [5] it was 57%; in test [6] it was 59%; in test [7] it was 52%.

In the case of `O=S(=O)(NCC1CCN(CCOc2cccc3c2OCCO3)C1)c1ccc(F)cc1` (stereo not shown) [Compound 300, N-[[1-[2-(2,3-Dihydro-1,4-benzodioxin-5-yloxy)ethyl]pyrrolidin-3-yl]-methyl]-4-fluoro-benzenesulphonamide], the “α1 [%]” value in test [1] is listed as 83%. For the same molecule, the inhibition at 1 µM was 38% in test [2]; 64% in test [3]; -2% in test [4]; 35% in test [5]; 34% in test [6]; 52% in test [7].

On to `Cc1cccc(S(=O)(=O)NC2CN(CCOc3cccc4[nH]ccc34)C2)c1` [Compound 48, N-[1-[2-(1H-Indol-4-yloxy)ethyl]azetidin-3-yl]-3-methyl-benzenesulphonamide], for which the “α1 [%]” value in test [1] was determined as 87%. Besides, the inhibition at 1 µM in test [2] is 17%; in test [3] it was -3%; in test [4], 1%; in test [5], 84%; in test [6] it was 32%; in test [7] it was 80%.

With `O=S(=O)(NC1CN(CCOc2cccc3c2OCCO3)C1)c1cccc2ccccc12` [Compound 94, N-[1-[2-(2,3-Dihydro-1,4-benzodioxan-8-yloxy)ethyl]azetidin-3-yl]-naphthalene-1-sulphonamide], in test [1], the “α1 [%]” value came out at 87%. The “5-HT6 [%]” value in test [2] turned out to be 65%. Moreover, in test [3], the “SERT [%]” value was 62%. In addition, the “M3 [%]” value in test [4] came to 1%. Also, the “D2 [%]” value in test [5] is 102%. Further, the “5-HT2C [%]” value in test [6] turned out to be 91%. Besides, the “D4.4 [%]” value in test [7] was found to be 90%.

Regarding `O=S(=O)(NC1CCN(CCOc2cccc3[nH]ccc23)CC1)c1ccccc1` [Compound 55, N-[1-[2-(1H-Indol-4-yloxy)ethyl]-4-piperidine]benzenesulphonamide], the “α1 [%]” value in test [1] is on record as 51%. Further, the “5-HT6 [%]” value in test [2] was 3%. In test [3], the “SERT [%]” value was determined as 6%. In addition, the “M3 [%]” value in test [4] was −1%. For the same molecule, the “D2 [%]” value in test [5] was 44%. Further, in test [6], the “5-HT2C [%]” value amounted to 30%. The “D4.4 [%]” value in test [7] was 31%.

For `O=S(=O)(N[C@@H]1CCN(CCCc2noc3cc(F)ccc23)C1)c1ccc2ccccc2c1` [Compound 206, N-[(3R)-1-[3-(6-Fluoro-1,2-benzoxazol-3-yl)propyl]pyrrolidin-3-yl]naphthalene-2-sulphonamide], the “α1 [%]” value in test [1] was 93%. Besides, the inhibition at 1 µM in test [2] was 101%; in test [3], 62%; in test [4], 9%; in test [5], 101%; in test [6], 84%; in test [7], 87%. For the same molecule, the values for the Ki in test [2] and in test [5] were 6.1 nM and 0.3 nM, respectively.

In the case of `O=S(=O)(N[C@@H]1CCN(CCCc2noc3cc(F)ccc23)C1)c1csc2ccccc12` [Compound 224, N-[(3R)-1-[3-(6-Fluoro-1,2-benzoxazol-3-yl)propyl]pyrrolidin-3-yl]benzothiophene-3-sulphonamide], in test [1], the “α1 [%]” value came out at 89%. The inhibition at 1 µM came out at 99% in test [2]; 64% in test [3]; 25% in test [4]; 98% in test [5]; 71% in test [6]; 101% in test [7]. Besides, the inhibitory constant (Ki) in test [2] worked out at 4 nM; in test [5], 8.7 nM.

For the origin of these results see patent US20140135310A1, “SULPHONAMIDE DERIVATIVES OF ALICYCLIC AMINES FOR THE TREATMENT OF CENTRAL NERVOUS SYSTEM DISEASES” (Adamed Sp. z o.o., priority 2011, published 2014).
